The term pKa denotes the pH at which an ionisable group is half protonated. As a reminder, the logD is lipophilicity at a set pH, counting ionised and neutral species. Lower therefore signals lower lipophilicity. By microsomal CLint is commonly meant the capacity of the preparation to metabolise the compound, expressed as a volume cleared per time. As usually defined, the fraction unbound is the share of the substance not bound to proteins or other matrix. A low value points to extensive binding. The thermodynamic solubility is the concentration in solution at equilibrium with solid. What is called hepatocyte CLint is the rate of metabolic loss divided by the concentration. Low values mean greater metabolic stability, high ones faster metabolism.

Values after ≈ are worked out from the molar mass of the structure shown.

Data set [1] in a line: physchem.
Data set [2] can be described thus: physchem. Particulars: octan-1-ol/water.
Data set [3] can be described thus: in vitro. Particulars: human.
Data set [4] is described as follows: in vitro. As to conditions: human, plasma.
Data set [5] can be described thus: in vitro. As to conditions: SD, HW or BN, rat, plasma.
Data set [6] is described as follows: physchem. As to conditions: pH 7.4 buffer.
A short description of data set [7]: in vitro. As to conditions: hepatocytes.

On to `CC1=C(CC(=O)O)c2cc(F)ccc2/C1=C\c1ccc([S+](C)[O-])cc1` (stereo not given), for which the pKa in data set [1] was 3.9. This molecule also came in with a logD in data set [2] (pH 7.4, LogD7.4) of -0.01. Also, the microsomal CLint in data set [3] (liver microsomes) was less than 3 µL/min/mg.
Take `O=C(O)COc1ccc([N+](=O)[O-])cc1-c1ccccc1`: in data set [4] (PPB), the fraction unbound at 5 h was 0.0041. Further, the pKa in data set [1] came out at 2.7. In data set [2] (pH 7.4, LogD7.4), this molecule gave a pH-dependent lipophilicity (logD) of -0.69.
`CCS(=O)(=O)c1ccc(-c2cc(C(F)(F)F)ccc2OCC(=O)O)c(Cl)c1` came in with a pKa in data set [1] of 3.3. In data set [5], the free fraction (fraction unbound) at 5 h was 0.0313. In addition, the microsomal CLint in data set [3] (liver microsomes) is less than 3 µL/min/mg.
In turn, `CCC(Oc1ccc(C(F)(F)F)cc1-c1ccc(S(=O)(=O)CC)cc1C)C(=O)O` (stereo not given) yielded a pKa in data set [1] of 3.4. Further, the logD in data set [2] (pH 7.4, LogD7.4) was 0.31.
As for `CCS(=O)(=O)c1ccc(-c2cc(C(F)(F)F)ccc2CCC(=O)O)c(C)c1`, in data set [4] (PPB), the unbound share (fraction unbound) at 5 h is 0.0256. This molecule also displayed a pKa in data set [1] of 4.2. The molecule also displayed a microsomal CLint in data set [3] (liver microsomes) of less than 3 µL/min/mg.
As to `N#Cc1cn(Cc2ccco2)c(=O)[nH]c1=O`, the pKa in data set [1] was 6.1. For the same molecule, the microsomal CLint in data set [3] (liver microsomes) was less than 3 µL/min/mg.
For the molecule `Cc1ccc2c(c1)c(Sc1ccc(Cl)cc1)c(C)n2CC(=O)O`, the pKa in data set [1] was found to be 4.1. Moreover, the log distribution coefficient (logD) in data set [2] (pH 7.4, LogD7.4) came out at 2.18. In data set [3] (liver microsomes), this molecule gave an intrinsic metabolic clearance (microsomal CLint) of 7 µL/min/mg.
With `CCC(CC)NC(=O)c1c(C)nn(C(C)C)c1NS(=O)(=O)c1ccc(C)cc1`, the values for the free fraction (fraction unbound) at 5 h in data set [4] (PPB) and in data set [5] were 0.035 and 0.089, respectively. Further, in data set [1], the pKa came to 4.7. Further, the logD in data set [2] (pH 7.4, LogD7.4) was 0.92.
Take `Cc1ccc(S(=O)(=O)Nc2c(C(=O)N[C@@H](C)C(C)(C)C)c(C)nn2C(C)(C)C)cc1`: the pKa in data set [1] was 5.5. Further, in data set [6], the solubility (thermodynamic) came to 513 µM (≈ 223 µg/mL). The same molecule had a logD in data set [2] (pH 7.4, LogD7.4) of 1.84. The molecule further had a microsomal CLint in data set [3] (microsomes) of 37 µL/min/mg.
For the molecule `CCC(CC)n1nc(C)c(C(=O)N[C@@H](C)C(C)(C)C)c1NS(=O)(=O)c1ccc(C)cc1`, the fraction unbound at 5 h in data set [4] (PPB) is 0.02; in data set [5] it was 0.0818. The same molecule came in with a pKa in data set [1] of 4.6. Moreover, the logD in data set [2] (pH 7.4, LogD7.4) turned out to be 1.88.
Molecule `COc1nc(Cl)c(Cl)nc1NS(=O)(=O)c1ccc(Cl)s1` showed a fraction unbound at 5 h in data set [4] (PPB) of 0.0008. Moreover, the pKa in data set [1] was 3.6. The microsomal CLint in data set [3] (liver microsomes) was 10 µL/min/mg.
The molecule `COCCNc1nc(N)c2nc(O)n(Cc3ccccc3)c2n1` gave a fraction unbound at 5 h in data set [4] (PPB) of 0.208. In data set [1], this molecule registered a pKa of 10. For the same molecule, the logD in data set [2] (pH 7.4, LogD7.4) is 2.18. This molecule yielded an intrinsic clearance (microsomal CLint) in data set [3] (liver microsomes) of 5.5 µL/min/mg.
`O=C(O)c1ccc(CN2CCC(CN3CCC(Oc4ccc(Cl)c(Cl)c4)CC3)CC2)cc1` showed a pKa in data set [1] of 3.5. The same molecule returned a microsomal CLint in data set [3] (liver microsomes) of less than 3 µL/min/mg.
With `CN(C)c1ccc(S(=O)(=O)NC(=O)N2CCC(N3CCC(Oc4ccc(Cl)c(Cl)c4)CC3)CC2)cc1`, the fraction unbound at 5 h in data set [4] (PPB) is 0.0017. Further, in data set [1], the pKa is 6.1. Besides, the logD in data set [2] (pH 7.4, LogD7.4) was found to be 1.7. This molecule yielded a microsomal CLint in data set [3] (liver microsomes) of 10.5 µL/min/mg.
With `Cc1ccccc1S(=O)(=O)NC(=O)N1CCC(N2CCC(Oc3ccc(Cl)c(Cl)c3)CC2)CC1`, the fraction unbound at 5 h in data set [4] (PPB) was 0.105. In data set [1], this molecule returned a pKa of 3.4. For the same molecule, in data set [2] (pH 7.4, LogD7.4), the logD is 1.71.
Turning to `Cn1c(C(=O)O)c(CCCOc2cccc3ccccc23)c2ccccc21`, the pKa in data set [1] came out at 4.01. Besides, the logD in data set [2] (pH 7.4, LogD7.4) stood at 2.99.
In turn, `O=C(Nc1ccc([N+](=O)[O-])cc1O)Nc1ccccc1Br` had a fraction unbound at 5 h in data set [4] (PPB) of 0.0027. In data set [1], this molecule showed a pKa of 7.7. In data set [2] (pH 7.4, LogD7.4), this molecule came in with a pH-dependent lipophilicity (logD) of 3.9.
Turning to `Cc1cn(Cc2ccccc2)c(=O)[nH]c1=O`, in data set [1], the pKa was determined as 9.4. Besides, the pH-dependent lipophilicity (logD) in data set [2] (pH 7.4) is 1.19.
Regarding `Nc1nc2nc(SCc3ccccc3)[nH]c(=O)c2s1`, in data set [1], the pKa came out at 7.1. In data set [3] (liver microsomes), this molecule showed a microsomal CLint of less than 3 µL/min/mg.
Regarding `C(=C\c1nn[nH]n1)/c1ccccc1`, in data set [1], the pKa came to 4.5. The same molecule returned a log distribution coefficient (logD) in data set [2] (pH 7.4, LogD7.4) of -0.4.
Consider `N#Cc1c(O)nc(N)nc1-c1ccccc1`, for which the fraction unbound at 5 h in data set [4] (PPB) and in data set [5] was 0.0366 each time. In data set [1], this molecule showed a pKa of 6.52.
Consider `O=C(O)c1ccc(-c2ccc(Cl)c(C(=O)NCC34CC5CC(CC(C5)C3)C4)c2)cc1`, for which the fraction unbound at 5 h in data set [4] (PPB) was 0.0077; in data set [5], 0.0074. The same molecule registered a pKa in data set [1] of 4.1. Moreover, the logD in data set [2] (pH 7.4, LogD7.4) worked out at 2.48.
In data set [4], `CC(=O)Nc1ccc(O)cc1` [ACETAMINOPHEN] gave an unbound share (fraction unbound) at 5 h of 0.734. For the same molecule, in data set [1], the pKa is 9.48. In data set [2] (pH 7.4, LogD7.4), the pH-dependent lipophilicity (logD) turned out to be 0.25.
In the case of `CC1(C)S[C@@H]2[C@H](NC(=O)[C@H](NC(=O)N3CCNC3=O)c3ccccc3)C(=O)N2[C@H]1C(=O)O` [AZLOCILLIN], the pKa in data set [1] worked out at 2.41.
As for `Cn1nnnc1SCC1=C(C(=O)O)N2C(=O)[C@@H](NC(=O)[C@H](O)c3ccccc3)[C@H]2SC1` [CEFAMANDOLE], the pKa in data set [1] worked out at 3.29.
As to `NS(=O)(=O)c1cc(C2(O)NC(=O)c3ccccc32)ccc1Cl` (stereo not given) [CHLORTHALIDONE], the pKa in data set [1] worked out at 9.11. The molecule further yielded a solubility (thermodynamic) in data set [6] of 501 µM (≈ 170 µg/mL). The logD in data set [2] (pH 7.4) was 0.97.
`O=C(O)c1cc(=O)c2ccccc2o1` [CHROMOCARB] displayed a pKa in data set [1] of less than 2.
`CCn1nc(C(=O)O)c(=O)c2cc3c(cc21)OCO3` [CINOXACIN]: the pKa in data set [1] stood at 4.36.
In data set [1], `CC1=NS(=O)(=O)c2cc(Cl)ccc2N1` [DIAZOXIDE] returned a pKa of 8.42. Besides, the logD in data set [2] (pH 7.4, LogD7.4) was found to be 1.05.
`CCCCc1oc2ccc(NS(C)(=O)=O)cc2c1C(=O)c1ccc(OCCCN(CCCC)CCCC)cc1` [DRONEDARONE]: the fraction unbound at 5 h in data set [4] (PPB) is 0.0009. Further, in data set [1], the pKa was 7.69.
On to `Cc1onc(-c2c(F)cccc2Cl)c1C(=O)N[C@@H]1C(=O)N2[C@@H]1SC(C)(C)[C@@H]2C(=O)O` [FLOXACILLIN], for which, in data set [1], the pKa is 2.46.
On to `O=C(O)c1ccccc1Nc1cccc(C(F)(F)F)c1` [FLUFENAMIC ACID], for which the pKa in data set [1] came out at 3.56. Moreover, the logD in data set [2] (pH 7.4) was 2.01.
With `C[C@@H](C(=O)NS(C)(=O)=O)c1ccc(OS(=O)(=O)C(F)(F)F)cc1` [LADARIXIN], the intrinsic metabolic clearance (hepatocyte CLint) in data set [7] is less than 3 µL/min/1e6 cells. Besides, the pKa in data set [1] was 3.1. Besides, the intrinsic clearance (microsomal CLint) in data set [3] (liver microsomes) was less than 3 µL/min/mg.
Take `O=C(O)CCc1nc(-c2ccccc2)c(-c2ccccc2)o1` [OXAPROZIN]: the fraction unbound at 5 h was 0.0005 in data set [4] (PPB) and 0.0024 in data set [5]. The molecule also returned a pKa in data set [1] of 3.87.
`CC1(C)S[C@@H]2[C@H](NC(=O)Cc3ccccc3)C(=O)N2[C@H]1C(=O)O` [PENICILLIN G] registered a pKa in data set [1] of 3.32.
Still for that read-out and setting: as for `CCCc1c2c(cc3c(=O)cc(C(=O)O)oc13)CCCC2` [PROCROMIL], the figure is less than 2; as for `CN(C(=O)c1c(O)c2ccccc2n(C)c1=O)c1ccccc1` [ROQUINIMEX], 4.2; as for `Nc1ccc(S(=O)(=O)Nc2ncccn2)cc1` [SULFADIAZINE], 6.29.
`Cc1nnc(NS(=O)(=O)c2ccc(N)cc2)s1` [SULFAMETHIZOLE] showed a fraction unbound at 5 h in data set [4] (PPB) of 0.0647. In addition, the pKa in data set [1] was 5.4. The logD in data set [2] (pH 7.4, LogD7.4) is -1.33.
On to `Nc1ccc(S(=O)(=O)Nc2nccs2)cc1` [SULFATHIAZOLE], for which, in data set [1], the pKa is 7.01. In data set [2] (pH 7.4, LogD7.4), this molecule had a log distribution coefficient (logD) of -0.37.
For `Cc1ccc(S(=O)(=O)NC(=O)NN2CCCCCC2)cc1` [TOLAZAMIDE] the same measures were 5.8 and 0.01.
With `O=C(O)c1cc(=O)c2ccccc2[nH]1` [TRANSTORINE], in data set [1], the pKa is 2.5.

The values above are taken from ChEMBL document CHEMBL3301361, “Experimental in vitro DMPK and physicochemical data on a set of publicly disclosed compounds”.
